{"source": "the NIST ThermoML archive (doi:10.1016/j.jct.2011.10.009)", "conditions": "101.33 kPa, Liquid, Vibrating tube method", "note": "± gives the expanded uncertainty stated by the source."}
{"smiles": "[2H]C(C)O", "note": "(stereo not given) [ethanol-1-d]", "values": [{"measurement": "mass density", "setting": "278.15 K", "value": "818.95 ± 0.14", "unit": "kg/m3"}, {"measurement": "mass density", "setting": "288.15 K", "value": "810.32 ± 0.14", "unit": "kg/m3"}, {"measurement": "mass density", "setting": "298.15 K", "value": "801.57 ± 0.14", "unit": "kg/m3"}, {"measurement": "mass density", "setting": "308.15 K", "value": "792.68 ± 0.15", "unit": "kg/m3"}, {"measurement": "mass density", "setting": "318.15 K", "value": "783.63 ± 0.15", "unit": "kg/m3"}]}
{"smiles": "CCO", "note": "[ethanol]", "values": [{"measurement": "mass density", "setting": "278.15 K", "value": "802.08 ± 0.11", "unit": "kg/m3"}, {"measurement": "mass density", "setting": "288.15 K", "value": "793.6 ± 0.12", "unit": "kg/m3"}, {"measurement": "mass density", "setting": "298.15 K", "value": "785.03 ± 0.12", "unit": "kg/m3"}, {"measurement": "mass density", "setting": "308.15 K", "value": "776.35 ± 0.12", "unit": "kg/m3"}, {"measurement": "mass density", "setting": "318.15 K", "value": "767.54 ± 0.13", "unit": "kg/m3"}]}
